{"source": "patent US20110105579A1", "about": "“Plant Health Composition” (priority 2008, published 2011)", "key": {"[1]": {"tested_on": "Corn (Zea maydis var. M314A10) seedlings", "test": "Cold tolerance of corn seedlings after seed treatment (seedling mortality after exposure to -5° C.)", "format": "in vivo", "details": "for Observed efficacy (%) of cold tolerance GS 10 (3 hrs): % decrease of seedling mortality vs untreated control; for Observed efficacy (%) of cold tolerance GS 10 (3 hrs) / Seedling mortality (mean %) GS 10 (3 hrs): S8 2.5 g a.i./100 kg seed, Ia 1 g a.i./100 kg seed; for Seedling mortality (mean %) GS 10 (3 hrs): corn seed treatment, -5° C. for 3 hrs at growth stage 10, recorded 3 days after cold treatment, control 27", "method": "Corn (Zea maydis var. M314A10) seeds were treated in a Hege 11 seed treater in a total slurry volume of 1000 ml/100 kg seed. Treatments comprised:\n1) Water (control) 2) Pyraclostrobin (S8) (2.5 g a.i./100 kg); 3) Compound Ia (1 g a.i./100 kg); 4) Pyraclostrobin (S8) (2.5 g a.i./100 kg)+compound Ia (1 g a.i./100 kg).\nCF Clear Binder (19 ml/100 kg seed) and color coat blue (13 ml/100 kg seed) were added to all treatments including the check. Following seed treatment, seeds were allowed to dry overnight. Seeds were planted in plastic pots (10 cm×10 cm×12 cm). Experiments were conducted using natural soil (sandy loam soil, source NC, U.S.A.). Pots were placed inside the greenhouse in a completely randomized design. Seedlings were grown at 25° C., until they reached growth stages 10 (first leaf through coleoptile, BBCH Scale). At growth stages 10, seedlings were placed in a completely randomized design in a low temperature incubator (Thermo Electron Corporation) and exposed to −5° C. during 3 hrs. At the time of cold exposure, pots were at field capacity. Percentage of seedling mortality for each treatment was recorded 3 days after the cold treatment.\nThe efficacy of induced cold tolerance (E) was calculated as % decrease of seedling mortality in the treatments compared to the untreated control:\na corresponds to the seedling mortality (%) of the treated plants and b corresponds to the seedling mortality (%) of the untreated (control) plants\nThe expected efficacy of the combination of the active compounds were estimated using Colby's formula (Colby, S. R., Calculating synergistic and antagonistic responses of herbicide combinations, Weeds, 15, pp. 20-22, 1967) and compared with the observed efficacy.\nE=x+y−x·y/100 Colby's formula • E expected efficacy, expressed in % of the untreated control, when using the mixture of the active compounds A and B at the concentrations a and b • x efficacy, expressed in % of the untreated control, when using the active ingredient A at the concentration a • y efficacy, expressed in % of the untreated control, when using the active ingredient B at the concentration b"}, "[2]": {"tested_on": "Soybeans, variety TMG 103 RR", "test": "Soybean field trial: crop emergence and crop establishment after seed treatment (plant count per 5 m row)", "format": "in vivo", "details": "for Observed efficacy (%) 12 days after planting / Observed efficacy (%) 33 days after planting: increase in number of plants vs control, S6 75, Ia 50 g a.i./100 kg seed; for Number of plants per 5 m distance (mean) 12 days after planting / Number of plants per 5 m distance (mean) 33 days after planting: soybean seed treatment, S6 75 g a.i./100 kg seed, Ia 50 g a.i./100 kg seed; for Number of plants per 5 m distance (mean) 12 days after planting: crop emergence, control 35; for Number of plants per 5 m distance (mean) 33 days after planting: crop establishment, control 34", "method": "Soybeans were grown in 2008 in the Rondonopolis region, Mato Grosso, Brazil. The variety TMG 103 RR was planted at a seeding rate of 45 kg/ha. The trial was setup as randomized bloc design with 4 replications. Plot size was 10 m^2. The soybean seed was treated prior to planting with either orysastrobin (S6), compound Ia or was left untreated (Control). Compound Ia was used as an FS formulation (100 g a.i./L) with a dose rate of 500 ml/100 kg seed (50 g a.i./100 kg). Orysastrobin (S6) was applied as an FS formulation (250 g a.i./L) with a dose rate of 300 ml per 100 kg seed (75 g a.i./100 kg). In the combination treatments of compound Ia and orysastrobin, both formulations were applied in a sequence. The formulations were applied in a total slurry volume of […] of seed.\nThe observed efficacy (E) of the compounds on crop emergence and crop establishment as an indicator of plant vitality and plant vigor was determined by counting the plants in a row on a distance of 5 m at 12 and 33 days after planting.\nThe efficacy of the fungicidal treatments was calculated as the increase in the number of plants in the treatments compared to the control (%):\na corresponds to the number in the treated and b corresponds to the number of plants in the untreated (control) plots\nThe expected efficacy of the combination of the active compounds was estimated using Colby's formula (see example 1 above)"}}}
{"smiles": "Cn1cc(C(=O)Nc2ccccc2-c2cc(F)c(F)c(F)c2)c(C(F)F)n1", "note": "[Compound Ia, N-(3′,4′,5′-trifluorobiphenyl-2-yl)-3-difluoromethyl-1-methyl-1H-pyrazole-4-carboxamide]", "values": [{"measurement": "Observed efficacy (%) of cold tolerance GS 10 (3 hrs)", "setting": "[1]", "value": 15, "unit": "%"}, {"measurement": "Seedling mortality (mean %) GS 10 (3 hrs)", "setting": "[1]", "value": "23 (b) %"}, {"measurement": "seedling mortality, as an indicator of plant vigor (in words)", "setting": "[1]; vs water control, table 4", "value": "significantly decreased"}, {"measurement": "Observed efficacy (%) 12 days after planting", "setting": "[2]", "value": 40.0, "unit": "%"}, {"measurement": "Observed efficacy (%) 33 days after planting", "setting": "[2]", "value": 32.3, "unit": "%"}, {"measurement": "Number of plants per 5 m distance (mean) 12 days after planting", "setting": "[2]", "value": 49}, {"measurement": "Number of plants per 5 m distance (mean) 33 days after planting", "setting": "[2]", "value": 45}, {"measurement": "number of plants, as an indicator of plant vigor (in words)", "setting": "[2]; vs untreated control, table 6", "value": "significantly increased"}]}
{"smiles": "CNC(=O)/C(=N/OC)c1ccccc1CO/N=C(C)/C(=N/OC)C(/C)=N/OC", "note": "[Orysastrobin (S6), orysastrobin, reference compound]", "values": [{"measurement": "Observed efficacy (%) 12 days after planting", "setting": "[2]", "value": 57.1, "unit": "%"}, {"measurement": "Observed efficacy (%) 33 days after planting", "setting": "[2]", "value": 52.9, "unit": "%"}, {"measurement": "Number of plants per 5 m distance (mean) 12 days after planting", "setting": "[2]", "value": 55}, {"measurement": "Number of plants per 5 m distance (mean) 33 days after planting", "setting": "[2]", "value": 52}]}
{"smiles": "COC(=O)N(OC)c1ccccc1COc1ccn(-c2ccc(Cl)cc2)n1", "note": "[Pyraclostrobin (S8), pyraclostrobin, reference compound]", "values": [{"measurement": "Observed efficacy (%) of cold tolerance GS 10 (3 hrs)", "setting": "[1]", "value": 22, "unit": "%"}, {"measurement": "Seedling mortality (mean %) GS 10 (3 hrs)", "setting": "[1]", "value": "21 (c) %"}]}
